The values below come from ChEMBL document CHEMBL2074151, “Molecular identification of a rat novel organic anion transporter moat1, which transports prostaglandin D(2), leukotriene C(4), and taurocholate” (Biochem Biophys Res Commun, 2000).

Data set [1] deals with T1, Solute carrier organic anion transporter family member 2B1 (Rattus norvegicus, UniProt Q9JHI3).
T1 sequence (Q9JHI3 whole entry): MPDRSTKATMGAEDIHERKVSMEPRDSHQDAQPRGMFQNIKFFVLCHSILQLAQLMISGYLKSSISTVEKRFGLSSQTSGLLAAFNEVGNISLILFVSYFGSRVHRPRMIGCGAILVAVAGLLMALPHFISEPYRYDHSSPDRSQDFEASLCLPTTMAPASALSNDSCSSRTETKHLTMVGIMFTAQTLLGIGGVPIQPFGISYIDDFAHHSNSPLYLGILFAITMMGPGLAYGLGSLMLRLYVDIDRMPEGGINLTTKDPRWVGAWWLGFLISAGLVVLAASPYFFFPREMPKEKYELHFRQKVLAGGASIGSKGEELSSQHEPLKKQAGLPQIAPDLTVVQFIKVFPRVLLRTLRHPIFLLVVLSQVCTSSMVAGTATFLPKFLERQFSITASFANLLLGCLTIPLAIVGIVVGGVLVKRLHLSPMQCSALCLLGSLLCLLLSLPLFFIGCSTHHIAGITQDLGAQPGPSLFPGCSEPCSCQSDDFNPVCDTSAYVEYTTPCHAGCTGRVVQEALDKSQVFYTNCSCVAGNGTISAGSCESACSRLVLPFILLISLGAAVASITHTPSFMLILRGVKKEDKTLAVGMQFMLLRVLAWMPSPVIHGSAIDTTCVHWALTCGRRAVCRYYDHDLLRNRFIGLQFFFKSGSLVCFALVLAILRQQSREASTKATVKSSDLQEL
Nature of the data set: (§1) TP_TRANSPORTER: uptake in Xenopus laevis oocytes. It counts as functional, cell-based. To be noted: oocyte.

For data set [2], the target named is T1, Solute carrier organic anion transporter family member 2B1. Nature of the data set: TP_TRANSPORTER: inhibition of PGD2 uptake in Xenopus laevis oocytes. It counts as functional, cell-based, Oocyte.
Substrate in data set [3]: CCCCC[C@H](O)/C=C/[C@H]1C(=O)C[C@H](O)[C@@H]1C/C=C\CCCC(=O)O
Described as §1. It counts as functional, cell-based, Oocyte.

Substrate in data set [4]: CCCCC/C=C\C\C=C/C=C/C=C/[C@@H](SC[C@@H](NC(=O)CC[C@H](N)C(=O)O)C(=O)NCC(=O)O)[C@@H](O)CCCC(=O)O
The data set is described as §1. It counts as functional, cell-based, Oocyte.

With `CCCCC[C@H](O)/C=C/[C@H]1[C@H](O)CC(=O)[C@@H]1CCCCCCC(=O)O` [ALPROSTADIL], the Activity result in data set [1] was “substrate [+]”. Also, the IC50 (usually the concentration that gives 50% inhibition) in data set [2] amounted to 35.8 nM. As for `CCCCC[C@H](O)/C=C/[C@H]1[C@H](O)CC(=O)[C@@H]1C/C=C\CCCC(=O)O` [DINOPROSTONE], the Activity entry in data set [1] is “substrate [+]”.

With `CCCCC[C@H](O)/C=C/[C@@H]1[C@@H](C/C=C\CCCC(=O)O)[C@@H](O)C[C@H]1O` [DINOPROST], the Activity result in data set [1] was “is not a substrate [-]”. In addition, the IC50 in data set [2] is 287 nM. On to `CC#CCC(C)[C@H](O)/C=C/[C@@H]1[C@H]2C/C(=C/CCCC(=O)O)C[C@H]2C[C@H]1O` (stereo not given in full) [ILOPROST], for which the Activity result in data set [1] was “substrate [+]”.

Turning to `C[C@]12CC[C@H](OS(=O)(=O)O)CC1=CC[C@@H]1[C@@H]2CC[C@]2(C)C(=O)CC[C@@H]12` [PRASTERONE SULFURIC ACID], in data set [1], the Activity result was “is not a substrate [-]”.

`CCCCC[C@H](O)/C=C/[C@H]1OC(O)C[C@H](O)[C@@H]1C/C=C\CCCC(=O)O` (stereo not given in full) [THROMBOXANE B2]: in data set [1], the Activity result was “substrate [+]”.

B1: Solute carrier organic anion transporter family member 2B1 (Rattus norvegicus) (protein)
chain: MPDRSTKATMGAEDIHERKVSMEPRDSHQDAQPRGMFQNIKFFVLCHSILQLAQLMISGYLKSSISTVEKRFGLSSQTSGLLAAFNEVGNISLILFVSYFGSRVHRPRMIGCGAILVAVAGLLMALPHFISEPYRYDHSSPDRSQDFEASLCLPTTMAPASALSNDSCSSRTETKHLTMVGIMFTAQTLLGIGGVPIQPFGISYIDDFAHHSNSPLYLGILFAITMMGPGLAYGLGSLMLRLYVDIDRMPEGGINLTTKDPRWVGAWWLGFLISAGLVVLAASPYFFFPREMPKEKYELHFRQKVLAGGASIGSKGEELSSQHEPLKKQAGLPQIAPDLTVVQFIKVFPRVLLRTLRHPIFLLVVLSQVCTSSMVAGTATFLPKFLERQFSITASFANLLLGCLTIPLAIVGIVVGGVLVKRLHLSPMQCSALCLLGSLLCLLLSLPLFFIGCSTHHIAGITQDLGAQPGPSLFPGCSEPCSCQSDDFNPVCDTSAYVEYTTPCHAGCTGRVVQEALDKSQVFYTNCSCVAGNGTISAGSCESACSRLVLPFILLISLGAAVASITHTPSFMLILRGVKKEDKTLAVGMQFMLLRVLAWMPSPVIHGSAIDTTCVHWALTCGRRAVCRYYDHDLLRNRFIGLQFFFKSGSLVCFALVLAILRQQSREASTKATVKSSDLQEL
Take B1: the results for the Km in data set [3] and in data set [4] were 0.0355 µM and 3.2 µM, respectively.
